Publication PMC5018213 (Journal of medicinal chemistry, 2016)
Read-outs that look alike come from different tables or passages of the source.

Assays:
FRα (RT16 CHO cells) = FRα (RT16 CHO cells) (Homo sapiens, UniProt P15328); assay: FR binding assay, [3H]folic acid competition in RT16 cells; settings: folic acid = 1
FRβ (D4 CHO cells) = FRβ (D4 CHO cells) (Homo sapiens, UniProt P14207); assay: FR binding assay, [3H]folic acid competition in D4 cells; settings: folic acid = 1
human PCFT = biological target: T1, human PCFT (Homo sapiens, UniProt Q96NT5); assay: PCFT transport competition, [3H]MTX uptake in R2/PCFT4 CHO cells; assay type: cell-based; settings: for Ki for PCFT [3H]MTX transport inhibition, fold higher than for PMX: pH 5.5, Dixon analysis; for inhibition at 1 µM / inhibition at 10 µM: pH 5.5, read-out: Inhibition of [3H]MTX uptake
T1 sequence (Q96NT5 1-459): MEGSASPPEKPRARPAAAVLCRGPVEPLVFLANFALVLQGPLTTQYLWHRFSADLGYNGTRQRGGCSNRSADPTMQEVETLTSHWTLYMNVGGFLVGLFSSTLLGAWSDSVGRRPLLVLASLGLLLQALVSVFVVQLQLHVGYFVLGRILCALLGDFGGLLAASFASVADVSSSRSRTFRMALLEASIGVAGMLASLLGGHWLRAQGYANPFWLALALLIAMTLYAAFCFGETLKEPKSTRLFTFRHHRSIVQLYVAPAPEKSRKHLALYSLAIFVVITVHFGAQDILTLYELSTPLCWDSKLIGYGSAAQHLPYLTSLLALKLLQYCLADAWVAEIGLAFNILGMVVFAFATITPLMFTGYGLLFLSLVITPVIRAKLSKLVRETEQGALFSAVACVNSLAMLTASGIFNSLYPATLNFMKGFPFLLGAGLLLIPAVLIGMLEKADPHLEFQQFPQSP

human GARFTase = biological target: T2, human GARFTase (Homo sapiens, UniProt P22102); assay type: biochemical; settings: from Ki values, Table 2
T2 sequence (P22102 810-1010 limits assumed): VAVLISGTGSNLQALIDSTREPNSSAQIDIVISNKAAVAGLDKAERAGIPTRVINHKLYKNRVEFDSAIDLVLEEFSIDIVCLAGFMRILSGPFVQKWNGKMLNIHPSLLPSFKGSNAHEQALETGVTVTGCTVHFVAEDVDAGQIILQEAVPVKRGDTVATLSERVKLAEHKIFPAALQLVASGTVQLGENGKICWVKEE

[1] = system: KB human tumor cells (express RFC, FRα, and PCFT); assay type: cell-based
[2] = system: CHO subline engineered to express human RFC (PC43-10); assay: Proliferation assay, RFC-expressing PC43-10 CHO cells; settings: PC43-10, 96 h, read-out: IC50 PC43-10 (RFC)
[3] = system: IGROV1 ovarian tumor xenografts; assay: In vivo efficacy trial with IGROV1 xenografts in SCID mice; settings: folate-deficient diet

Sequence of FRβ (D4 CHO cells) (P14207 17-255): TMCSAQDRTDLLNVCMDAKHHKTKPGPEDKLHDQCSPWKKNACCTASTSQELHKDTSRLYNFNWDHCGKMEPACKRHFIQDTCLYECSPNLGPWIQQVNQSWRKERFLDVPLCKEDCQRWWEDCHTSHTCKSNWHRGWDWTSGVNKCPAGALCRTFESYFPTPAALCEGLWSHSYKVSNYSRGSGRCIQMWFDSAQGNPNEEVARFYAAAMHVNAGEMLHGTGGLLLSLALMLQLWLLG
Sequence of FRα (RT16 CHO cells) (P15328 25-257): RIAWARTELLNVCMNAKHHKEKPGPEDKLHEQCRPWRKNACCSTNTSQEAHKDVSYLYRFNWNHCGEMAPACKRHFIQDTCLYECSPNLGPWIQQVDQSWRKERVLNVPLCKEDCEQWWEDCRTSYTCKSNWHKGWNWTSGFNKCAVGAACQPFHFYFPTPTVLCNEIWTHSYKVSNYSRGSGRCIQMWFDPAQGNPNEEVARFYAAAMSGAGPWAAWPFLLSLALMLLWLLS

For `Nc1nc2[nH]c(CCOc3ccc(C(=O)N[C@@H](CCC(=O)O)C(=O)O)cc3)cc2c(=O)[nH]1` [Compound 8, {4-[2-(2-amino-4-oxo-4,7-dihydro-3H-pyrrolo[2,3-d]pyrimidin-6-yl)ethoxy]benzoyl}-L-glutamic acid], the “Relative binding affinity, % of the affinity for folic acid, FRα” value (“Relative binding affinity, % … FRα” below) (FRα (RT16 CHO cells)) was 60–110%, the “Relative binding affinity, % of the affinity for folic acid, FRβ” value (from here on “Relative binding affinity, % … FRβ”) (FRβ (D4 CHO cells)) was 60–110% and the “Ki for PCFT [3H]MTX transport inhibition, fold higher than for PMX” value (human PCFT) was ~ 7 fold. For the same molecule, the “Improvement in GARFTase inhibitory potency over C (1)” value (human GARFTase) was “approximately 3 fold”.

With `Nc1nc2[nH]c(CCSc3ccc(C(=O)N[C@@H](CCC(=O)O)C(=O)O)cc3)cc2c(=O)[nH]1` [Compound 9, (4-{[2-(2-amino-4-oxo-4,7-dihydro-3H-pyrrolo[2,3-d]pyrimidin-6-yl)ethyl]thio}benzoyl)-L-glutamic acid] the “Relative binding affinity, % … FRα” value (FRα (RT16 CHO cells)) was 60–110% and the “Relative binding affinity, % … FRβ” value (FRβ (D4 CHO cells)) was 60–110%.

`Nc1nc2[nH]c(CCCc3ccc(C(=O)N[C@@H](CCC(=O)O)C(=O)O)s3)cc2c(=O)[nH]1` [Compound 3] was tested, and the IC50 ([1]; read-out: IC50 KB) was 0.26 nM, the IC50 ([1]; read-out: IC50 KB (+FA)) was 101 nM and the IC50 [2] was 101 nM.

In the case of `Nc1nc2[nH]c(CCNc3ccc(C(=O)N[C@@H](CCC(=O)O)C(=O)O)cc3)cc2c(=O)[nH]1` [Compound 4, (4-{[2-(2-Amino-4-oxo-4,7-dihydro-3H-pyrrolo[2,3-d]pyrimidin-6-yl)ethyl]amino}benzoyl)-L-glutamic acid], the “Relative binding affinity, % … FRα” value (FRα (RT16 CHO cells)) is reported as 60–110%, the “Relative binding affinity, % … FRβ” value (FRβ (D4 CHO cells)) is reported as 60–110% and the “Improvement in GARFTase inhibitory potency over C (1)” value (human GARFTase) is reported as “approximately 3 fold”. The “T-C (tumor growth delay)” value ([3]; 384 mg/kg total dose) was 9 days, the log10 kill ([3]; 384 mg/kg total dose) was 1.4 and the “Highest non-toxic total dose” value ([3]; Q3dx4 iv) was 600 mg/kg. The “Body weight loss (nadir)” value ([3]; during treatment, reversible) was 17.0–17.3%.

`Nc1nc2[nH]c(CCCc3ccc(C(=O)N[C@@H](CCC(=O)O)C(=O)O)cc3)cc2c(=O)[nH]1` [Compound 1] showed an inhibition at 1 µM (human PCFT) of 30 to 60%, an inhibition at 10 µM (human PCFT) of 80 to 90% and an IC50 [2] of 649 nM.

In the case of `CC(=O)N(CCc1cc2c(=O)[nH]c(N)nc2[nH]1)c1ccc(C(=O)N[C@@H](CCC(=O)O)C(=O)O)cc1` [Compound 6, (4-{N-[2-(2-amino-4-oxo-4,7-dihydro-3H-pyrrolo[2,3-d]pyrimidin-6-yl)ethyl]acetamido}benzoyl)-L-glutamic acid], the “Ki for PCFT [3H]MTX transport inhibition, fold higher than for PMX” value (human PCFT) is reported as ~ 18 fold.

`Nc1nc2[nH]cc(CCc3ccc(C(=O)N[C@@H](CCC(=O)O)C(=O)O)cc3)c2c(=O)[nH]1` [PMX, pemetrexed] was tested, and the inhibition at 1 µM (human PCFT) was at least 90% and the inhibition at 10 µM (human PCFT) was at least 90%.
